Source: patent publication US6492374B2, “Benzofuran derivatives, their preparation and use” (H. Lundbeck A/S, priority 1998, dated 2002)

Columns and labels:
[1] = target: T1, cloned human 5-HT1A receptors (Homo sapiens, UniProt P08908); assay: Inhibition of 3H-5-CT binding to human 5-HT1A receptors; details: cloned human 5-HT1A receptors expressed in HeLa cells (HA7)
T1 construct: expressed in transfected cells; host or cells: HeLa cells (HA7), stably transfected; cell homogenate
T1 sequence (P08908 1-422): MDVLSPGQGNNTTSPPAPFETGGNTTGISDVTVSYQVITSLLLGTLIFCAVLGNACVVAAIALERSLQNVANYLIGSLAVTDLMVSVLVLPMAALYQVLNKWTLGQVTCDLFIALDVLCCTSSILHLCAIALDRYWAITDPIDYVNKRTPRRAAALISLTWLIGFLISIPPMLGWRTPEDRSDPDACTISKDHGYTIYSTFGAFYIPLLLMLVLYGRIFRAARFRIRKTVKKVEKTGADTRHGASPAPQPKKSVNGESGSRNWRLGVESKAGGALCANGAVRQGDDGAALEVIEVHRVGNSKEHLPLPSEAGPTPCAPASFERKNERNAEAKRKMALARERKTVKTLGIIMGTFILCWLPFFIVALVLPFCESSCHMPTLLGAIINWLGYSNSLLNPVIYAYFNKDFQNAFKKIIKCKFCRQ
Experimental: Inhibition of ^3H-5CT Binding to Human 5-HT1A Receptors
Human 5-HT1A receptors (40 μg of cell homogenate) were incubated for 15 minutes at 37° C. in 50 mM Tris buffer at pH 7.7 in the presence of ^3H-5-CT. Non-specific binding was determined by including 10 μM of metergoline. The reaction was terminated by rapid filtration through Unifilter GF/B filters on a Tomtec Cell Harvester. Filters were counted in a Packard Top Counter.

[2] = tested on: serotonin reuptake (3H-5-HT uptake into whole rat brain synaptosomes); assay: Inhibition of 3H-5-HT uptake into rat brain synaptosomes; type: biochemical
Experimental: Inhibition of ^3H-5HT Uptake Into Rat Brain Synaptosomes
Using this method, the ability of drugs to inhibit the accumulation of ^3H-5-HT into whole rat brain synaptosomes is determined in vitro.

Structure (SMILES) | melting point [°C] | IC50 [1] [µM] | IC50 [2] [µM] | Inhibition of serotonin reuptake % inhibition at 100 nM [2] [% inh. at 100 nM]
CN(CCCC1(c2ccc(F)cc2)OCc2cc(C#N)ccc21)Cc1cccc2c1OCCO2.O=C(O)C(=O)O (stereo not shown) | 160 to 162 | – | – | –
COc1cccc(OCCCN(C)CCCC2(c3ccc(F)cc3)OCc3cc(C#N)ccc32)c1 (stereo not shown) [Compound 4o, 1-(4-Fluorophenyl)-1-[3-[[3-(3-methoxyphenoxy)propyl]methylamino]propyl]-1,3-dihydroisobenzofuran-5-carbonitrile] | – | 0.026 | 0.073 | –
C=CCN(CCCC1(c2ccc(F)cc2)OCc2cc(C#N)ccc21)CCc1c[nH]c2ccc(F)cc12 (stereo not shown) [Compound 13b, 1-[3-[[2-(5-Fluoro-1H-indol-3-yl)ethyl](prop-2-en-1-yl)amino]propyl]-1-(4-fluorophenyl)-1,3-dihydroisobenzofuran-5-carbonitrile] | – | 0.0074 | 0.044 | –
CCN(CCCC1(c2ccc(F)cc2)OCc2cc(C#N)ccc21)CCc1c[nH]c2c(F)cc(F)cc12 (stereo not shown) [Compound 12u, 1-[3-[[2-(5,7-Difluoro-1H-indol-3-yl)ethyl]ethylamino]propyl]-1-(4-fluorophenyl)-1,3-dihydroisobenzofuran-5-carbonitrile] | – | 0.009 | 0.022 | –
CCN(CCCC1(c2ccc(F)cc2)OCc2cc(C#N)ccc21)CCc1c[nH]c2c(Cl)cccc12 (stereo not shown) [Compound 12s, 1-[3-[[2-(7-Chloro-1H-indol-3-yl)ethyl]ethylamino]propyl]-1-(4-fluorophenyl)-1,3-dihydroisobenzofuran-5-carbonitrile] | – | 0.0077 | 0.018 | –
C=CCN(CCCC1(c2ccc(F)cc2)OCc2cc(C#N)ccc21)CCc1c[nH]c2ccc(Cl)cc12 (stereo not shown) [Compound 13f] | – | 0.031 | – | 16
CCN(CCCCc1c[nH]c2ccc(F)cc12)CCCC1(c2ccc(F)cc2)OCc2cc(C#N)ccc21 (stereo not shown) [Compound 12v, 1-[3-[[4-(5-Fluoro-1H-indol-3-yl)butyl]ethylamino]propyl]-1-(4-fluorophenyl)-1,3-dihydroisobenzofuran-5-carbonitrile] | – | 0.039 | 0.012 | –
CN(CCCc1cccc2c1OCCO2)CCCC1(c2ccc(F)cc2)OCc2ccccc21 (stereo not shown) [Compound 2j, 5-[3-[[3-[1-(4-Fluorophenyl)-1,3-dihydroisobenzofuran-1-yl]propyl]methylamino]propyl]-1,4benzodioxane] | – | 0.041 | 0.0097 | –
C=CCN(CCCc1c[nH]c2c(F)cccc12)CCCC1(c2ccc(F)cc2)OCc2cc(C#N)ccc21 (stereo not shown) [Compound 13e, 1-[3-[[3-(7-Fluoro-1H-indol-3-yl)propyl](prop-2-en-1-yl)amino]propyl]-1-(4-fluorophenyl)-1,3-dihydroisobenzofuran-5-carbonitrile] | – | 0.022 | 0.027 | –
CN(CCCC1(c2ccc(F)cc2)OCc2cc(C#N)ccc21)CCc1cccc2c1OCCO2.O=C(O)C(=O)O (stereo not shown) [Compound 1c, 1-[3-[[2-(1,4-Benzodioxan-5-yl)ethyl]methylamino]propyl]-1-(4-fluorophenyl)-1,3-dihydroisobenzofuran-5carbonitrile oxalate] | 118 to 120 | 0.053 | – | –
CCN(CCCc1c[nH]c2ccc(Br)cc12)CCCC1(c2ccc(F)cc2)OCc2cc(C#N)ccc21 (stereo not shown) [Compound 12ad, 1-(3-[[3-(5-Bromo-1H-indol-3-yl)propyl]ethylamino]propyl]-1-(4fluorophenyl)-1,3-dihydroisobenzofuran-5-carbonitrile] | – | 0.021 | – | 35
CN(CCCc1cccc2c1OCCO2)CCCC1(c2ccc(F)cc2)OCc2cc(F)ccc21.O=C(O)C(=O)O (stereo not shown) | 131 to 133 | – | – | –
CN(CCCc1c[nH]c2ccc(F)cc12)CCCC1(c2ccc(F)cc2)OCc2cc(C#N)ccc21 (stereo not shown) [Compound 12i, 1-[3-[[3-(5-Fluoro-1H-indol-3-yl)propyl]methylamino]propyl]-1-(4-fluorophenyl)-1,3-dihydroisobenzofuran-5-carbonitrile] | – | 0.027 | 0.02 | –
C=CCN(CCCC1(c2ccc(F)cc2)OCc2cc(C#N)ccc21)CCc1c[nH]c2c(F)cccc12 (stereo not shown) [Compound 13c, 1-[3-[[2-(7-Fluoro-1H-indol-3-yl)ethyl](prop-2-en-1-yl)amino]propyl]-1-(4-fluorophenyl)-1,3-dihydroisobenzofuran-5-carbonitrile] | – | 0.0096 | 0.012 | –
CN(CCCc1cccc2c1OCCO2)CCCC1(c2ccc(F)cc2)OCc2cc(C#N)ccc21.O=C(O)C(=O)O (single isomer, unassigned; (+)) [Compound 1b, (+)-1-[3-[[3-(1,4-Benzodioxan-5-yl)propyl]methylamino]propyl]-1-(4-fluorophenyl)-1,3-dihydroisobenzofuran-5-carbonitrile oxalate] | 114 to 116 | 0.012 | – | –
